Reference: a melting point compilation (Tetko et al.; mined from patent text by program, amines drawn as free bases though some values may be those of a salt)

Row | SMILES | melting point [°C]
1 | CCOC(=O)C(=CNc1ccnc(-c2ccncc2)n1)C(=O)OCC | 143 to 145
2 | Oc1ccc(CCNc2ncnc3scnc23)c(F)c1 | 193
3 | Cc1nc(C(N)=O)cn1-c1ccc(Cl)cc1 | 138 to 140
4 | O=C(CNc1ccc2cn[nH]c2c1)N1CCC(Cc2ccccc2)CC1 | 179 to 182
5 | COc1ccc2cc(S(=O)(=O)Cc3ccc(OC)c([N+](=O)[O-])c3)c(=O)oc2c1 | 250 to 252
6 | CC(C)(C)OC(=O)/C=C/c1cc2ncc(C#N)c(Cl)c2s1 | 193 to 194
7 | CONS(=O)(=O)c1cccc([N+](=O)[O-])c1 | 111 to 113
8 | CC(Oc1ccc(Oc2ccc(Cl)cc2Cl)cc1)C(=O)N1CCCO1 (stereo not drawn) | 115 to 118
9 | CCCC1=NN(c2ccccc2C(=O)O)C(=O)C1=CNc1ccccc1CC | 127
10 | O=C(Cl)c1cnoc1-c1ccc(Cl)cc1Cl | 46 to 50
11 | NC(=O)c1ccccc1CNC(=S)NC(=O)c1ccccc1 | 147 to 150
12 | O=C(Nc1ccc(C2=CCN(C(=O)OCc3ccccc3)CC2)cc1)OCc1ccccc1 | 146 to 148
13 | O=C(c1ccco1)n1sc2ccccc2c1=O | 157 to 161
14 | CCOP(=O)(Cc1ccc(NC(=O)c2cc3c(s2)-c2c(SC)sc(C(=O)Nc4ccc(CP(=O)(OCC)OCC)cc4)c2CC3)cc1)OCC | 262 to 263
15 | CCOC(=O)n1c(C(=O)c2ccccc2)c(N)c2c(Cl)cccc21 | 118 to 119
16 | O=C(O)c1cc(COC2CCCCO2)ccc1COC1CCCCO1 (stereo not drawn) | 107 to 108
17 | CCCCn1nc(CCc2ccccc2)nc1Cc1ccc(-c2ccccc2-c2nnn[nH]2)nc1 | 121 to 123
18 | C[C@@H]1N=C(c2ccccc2F)c2cc([N+](=O)[O-])ccc2N(C)C1=O | 95 to 110
19 | CC(C)CCC[C@H](NC(=O)[C@@H](N)Cc1c[nH]cn1)[C@@H](O)C1CCCCC1 | 126 to 130
20 | CCOc1ccccc1N(C(=O)C(N)=O)c1nc(N(CC)CC)nc(N(CC)CC)n1 | 97 to 100
21 | Cc1nc(-c2ncn3c2[C@@H]2CCCN2C(=O)c2c(Cl)cccc2-3)no1 | 205 to 206
22 | O=Cc1ccc2nccnc2c1 | 134
23 | O=Cc1cc([N+](=O)[O-])cc(Cl)c1S | 84 to 89
24 | CCOC(=O)C(C)(Sc1nc2ccc(OCC)cc2s1)c1ccccc1 (stereo not drawn) | 92 to 94
25 | O=[N+]([O-])c1ccc(Oc2nn(Cc3ccccc3F)c3ncccc23)nc1 | 111 to 113
26 | Cc1ccc(-c2cccc(/C=C/C(=O)Nc3ccc(Cc4ccccn4)cc3)c2)cc1 | 169 to 171

Row | SMILES | melting point [°C]
27 | Cc1cc(C)c(Nc2nc(C)ccc2S(=O)(=O)c2ccc(OCCCC#N)cc2)c(C)c1 | 160 to 162
28 | CCCC(O)c1cc(-c2ccc(F)cc2)oc1C (stereo not drawn) | 96 to 97
29 | CNC(=O)n1nc(Oc2ccc([N+](=O)[O-])cc2C(F)(F)F)c(C)c1C | 113 to 115
30 | COc1ccnc2c1C(=O)CC(c1ccccc1Cl)C2 (stereo not drawn) | 116 to 117
31 | Cn1c(=O)on(-c2cc(F)ccc2F)c1=O | 66 to 68
32 | COc1cccc(CCCc2c(CC#N)ccc(OC)c2OC)c1 | 78 to 79
33 | O=C(O)C=C1SC(Nc2c(Cl)cccc2Cl)=NC1=O | > 230
34 | COc1cc(Nc2c(C#N)cnc3cc(-c4ccc(CN5CCOCC5)cc4)sc23)c(Cl)cc1Cl | 244 to 245
35 | CCn1ncc2c1ncc1c(Nc3cccc(C(F)(F)F)c3)nc3cc(C)nn3c12 | 205 to 206
36 | O=C(O)CCSSc1ccc([N+](=O)[O-])cc1 | 98 to 100
37 | CCCCCCCCc1ccc(OC(=O)c2ccc([C@H]3CC[C@H](CCC)C3)cc2)cc1 (relative stereo) | 36
38 | CCCN(CCC)C(=O)CNc1nc(-c2ccccc2)nc2c1CCCC2 | 87 to 88
39 | CCc1cc2c(s1)-n1c(C)nnc1C(CC(=O)O)N=C2c1ccc(Cl)cc1 (stereo not drawn) | 198 to 202
40 | CC1Cc2cc3c(cc2C(C=Cc2ccc(F)cc2)=NN1)OCO3 (stereo not drawn) | 170 to 174
41 | CC(C)OC(=O)Nc1ccsc1 | 105 to 107
42 | CC(C)(C)c1nc(-c2ncn3c2COC(=O)c2ccccc2-3)no1 | 210 to 211
43 | CCOC(=O)OC1=C(c2cc(C)ccc2C)C(=O)NC1CC1CCS(=O)CC1 (stereo not drawn) | 103 to 106
44 | COC(=O)CCNc1c(C#N)cnn1-c1c(Cl)cc(C(F)(F)F)cc1Cl | 171 to 173
45 | CC(C)(C)c1ccc(NC=CS(=O)(=O)F)cc1 | 67 to 70.5
46 | COc1ccc(N2CCN(c3c(C)c(C)c4c(c3C)C(O)(c3ccc(-c5ccccc5)cc3)C(C)(C)O4)CC2)cc1 (stereo not drawn) | 182 to 184
47 | CO/C=C(/C(=O)OC)c1ccccc1/C=C(\Cl)OC(=O)C1=C(c2ccccc2)S(=O)(=O)C(c2ccccc2)C1=O (stereo not drawn) | 68 to 72
48 | O=C(O)CCCCCCCn1c(-c2ccc(O)cc2)nc(-c2ccccc2)c1-c1ccccc1 | 167
49 | CC(C)(N)CSCCO | 49 to 51
50 | CCOC(=O)c1cn(C)c2nc3c(F)c(F)c(F)cc3cc2c1=O | 320
51 | COc1cc(OC)nc(NC(=O)NS(=O)(=O)c2cccc3cccnc23)n1 | 175 to 177
52 | COc1ccc(S(=O)(=O)Nc2ccc(Cl)cc2/C=C/c2ccncc2)cc1 | 175 to 176

Further lines, results first:

Row | melting point [°C] | SMILES
53 | 81 | Nc1cc(C(=O)N(Cc2ccccc2)Cc2ccccc2)ccc1OCc1ccccc1
54 | 261 to 263 | O=C(O)c1ccccc1NCCCn1c2ccc(O)cc2c2c3c(c(-c4ccccc4Cl)cc21)C(=O)NC3=O
55 | 177 to 178 | Cc1noc(C)c1C(=O)Nc1ccc(-n2ccc(C(F)(F)F)n2)cc1
56 | 69 to 70 | Clc1ccsc1-c1nc(COc2ccc(CCCn3ccnc3)cc2)co1
57 | 162 to 180 | NNc1c(F)cc(Cl)c2nc(Cl)sc12
58 | 135 to 137 | CCc1cnc2c(C#N)cnn2c1-c1cccc(C(F)(F)F)c1
59 | 188 | O=CC1C(=O)CCC(c2ccccc2)(c2ccccc2)C1C[N+](=O)[O-] (stereo not drawn)
60 | 180 to 190 | CC(=O)OCc1ccc2cc(C(=O)O)ccc2c1
61 | 165 to 167 | Cc1noc(C)c1CN1C(=O)C2(COc3cc4c(cc32)OCO4)c2ccccc21 (stereo not drawn)
62 | 153 to 154 | CCOC(=O)COc1ccc(Br)cc1C1C(C(=O)OCC)=C(C)NC(C)=C1C(=O)OCC
63 | 145 to 147 | CC(=O)N1CC[C@H]2Cc3ccccc3[C@@H](c3ccccc3)N2CC1 (racemic)
64 | 237 to 242 | CCN1CCc2ccc(Nc3ncc(Cl)c(N[C@H]4CCC[C@H]4C(N)=O)n3)cc2CC1 (relative stereo)
65 | 96 to 100 | O=C(O)COCC(Cc1ccccc1)NC(=O)OCc1ccccc1 (stereo not drawn)
66 | 104 to 105 | CCOC(=O)CCC12CCC(=O)N1C(=O)CC2
67 | 112 to 113 | COc1ccc([C@H](Sc2cc(Oc3ccc4c(c3)OCO4)ccc2N)[C@@H](O)C(=O)O)cc1
68 | 120 to 122 | CSc1ccc2c(C3CCN(C(C)=O)CC3)nn(-c3ccccc3)c2c1
69 | 221 to 224 | O=C(Nc1ccc(-n2cnc(Cl)c2Cl)cc1)Nc1ccc(C(F)(F)F)cc1
70 | 201 to 203 | COc1ccccc1NC(=O)Nc1nc2c(s1)CN(C)CC2
71 | 198 to 200 | COc1ccc(-c2nc(N(C)C)c3c(C)c(C#N)sc3n2)cc1OC
72 | 119 to 122 | CCOC(=O)C1CCCc2[nH]c3c(C)ccc(OC)c3c21 (stereo not drawn)
73 | 222 | FC(F)c1cc(-c2ccc(C(F)(F)F)cc2)nc2c(-c3ccncc3)cnn12
74 | 198 | COc1cccc(C2=C(C#N)C(c3cccc4nonc34)c3c[nH]nc3N2)c1 (stereo not drawn)
75 | 127 | COc1cc(Nc2nccc(Nc3ccc4c(ccn4S(=O)(=O)c4ccccc4)c3)n2)cc(OC)c1OC

Row | melting point [°C] | SMILES
76 | 190 to 192 | c1ccc2c(c1)CCONC2
77 | 110 | O=C(Nc1nc2ccc(Sc3nnc4ccc(-c5cnn(CCOC6CCCCO6)c5)cn34)cc2s1)C1CC1 (stereo not drawn)
78 | 123 to 127 | CC1(C)[C@@H](CNC(=O)c2ccccc2F)CC[C@@]1(C)NCC(=O)N1C[C@@H](F)C[C@H]1C#N
79 | 233 to 234 | CCCn1c(=O)c2[nH]cnc2n(-c2ccc(Cl)cc2)c1=O
80 | 190 to 193 | CC[C@@]12C[C@@](C)(O)[C@](O)(c3ccccc3)C[C@H]1CCc1cc(OCC(C)(C)O)ccc12
81 | 219 to 222 | O=C(c1ccccn1)c1cc2ccncc2[nH]1
82 | 144 to 146 | COc1cc2ncnc(N3CCN(C(=O)Nc4ccc(C(=O)C(F)(F)F)cc4)CC3)c2cc1OC
83 | 167 | CC1C(=O)Nc2ccc(Cl)cc2N1C1CC1 (racemic)
84 | 124 | Fc1ccc(Cl)cc1-c1nnn[nH]1
85 | 51 to 53 | CCCOCCCCOCCCCCCNCC(O)c1cc(Cl)c(N)c(Cl)c1 (stereo not drawn)
86 | 96 to 97 | CC(C)CNc1nccc(Oc2ccc(NC(=O)c3cc(F)cc(N4CCOCC4)c3)c3ccccc23)n1
87 | 141 to 143 | O=C(Cl)[C@H](Cc1ccccc1)NS(=O)(=O)c1ccc2ccccc2c1
88 | 168 | CCCc1nc(SC2CCC(=CC(=O)O)CC2)c(C(=O)O)n1Cc1cc2c(cc1Cl)OCO2 (stereo not drawn)
89 | 154 | O=C1c2ccc(Nc3ccc(F)cc3F)cc2CCc2cc(OCCCO)ccc21
90 | 199 | CCCCS(=O)(=O)Cc1ccc(C(=O)Nc2ccc3cc(CN4CCCC4)cnc3c2C)cc1
91 | 49 | COc1c(C)cc(Cc2ccc3c(c2)OCO3)cc1C
92 | 119 to 121 | CC(=O)c1cccc(NC(=O)c2ccc3c(c2)CC(CSCc2ccccc2)O3)c1O (stereo not drawn)
93 | 154 to 156 | CC(C)c1nc(-c2ncn3c2C(C)(C)N(C(=O)N2CCCC2)c2cc(F)ccc2-3)no1
94 | 106 to 110 | O=C(c1cc(C2CCCCC2)ccn1)N(O)Cc1ccccc1
95 | 139 to 142 | Clc1ccc(Nc2nnc(Cl)c3sccc23)cc1
96 | 135 | Cn1ccc(NC(=O)Nc2cccc3c2C2CC4(CCN2C3=O)SCCS4)n1 (stereo not drawn)
97 | 125 to 127 | Clc1ccc(-c2nnc(Cl)s2)cc1
98 | 198 | OC1(C2CCNCC2)CC(c2ccc(F)cc2)c2ccc(F)cc21 (stereo not drawn)
